One data set concerns healthy volunteers. Kind of data set: Euglycaemic glucose clamp (glucose infusion rate) after single SC dose in healthy volunteers. The class given is in vivo, human. The procedure: In all treatment periods, subjects undergo a euglycaemic clamp procedure for up to 24/36 hours following each insulin compound injection. Glucose infusion rates (GIR) are adjusted to maintain euglycaemia, with the documented GIR over time providing the GD measure of insulin action. The aim of the euglycaemic glucose clamp is to maintain euglycaemia through glucose infusion after the administration of a dose of an insulin compound. It is assumed that endogenous insulin secretion and hepatic glucose output are minimal and that any glucose that is translocated out of the glucose space (i.e., glucose metabolized) is the direct consequence of the administered exogenous insulin. The GIR in this case will be the glucodynamic (GD) measure of the insulin action over time. All glucose clamp studies are performed after an overnight fast of approximately 8 hours. On the morning of the study, a small catheter is placed into a vein of one arm, ideally in the ante-cubital fossa, for administration of 20% dextrose solution (buffered to near neutral pH) under the control of a volumetric pump. Another catheter is placed, ideally in the wrist or hand for venous glucose sampling. This area is heated with a warming device to approximately 55-60° C. for sampling arterialized venous blood. Blood samples are obtained at the bedside for immediate determination of whole blood glucose concentrations using an automated glucose oxidase technique. After basal blood sampling and a stabilization period of approximately 30 minutes, each subject receives a dose of insulin compound administered subcutaneously. The start of the subcutaneous injection of an insulin compound is defined as time zero. Following completion of dosing, in conjunction with frequent blood sampling for measurement of blood glucose, glucose is infused intravenously at a variable rate in order to maintain euglycaemia for up to 24 or 36 hours after insulin administration.
Blood sampling occurs approximately every 10 minutes for approximately 30 minutes prior to dosing and continued every 5-10 minutes for the first 2 hours after dosing (with the option to sample as frequently as every 2.5 minutes), and then reduced to 10-30 minute intervals up to the end of clamp.
During the glucose clamp, the glucose infusion rate is adjusted to maintain a pre-determined target blood glucose concentration for the individual subject. Preferably, the target concentration is close to the fasting blood glucose. The aim of the glucose clamp procedure is to maintain the blood glucose concentrations within +5% of the pre-dose target value, which is defined as 5 mg/dL below the mean fasting blood glucose. Thus, blood glucose concentrations are kept constant while the GIR varied. […]

The conditions of data set [1]: calculated from published PK profiles; cited from earlier work.

With “LY: 20 kDa PEGylated insulin lispro, about 95% or more at B28 and 5% or less at A1, prepared as in Example 9”, in the data set on healthy volunteers (Part C, 0.5 mg/kg), the GIR profile shape result is ““peakless”” and the “time GD maintained” value is listed as “greater than 36 hours”. In the data set with healthy volunteers (Part C, 0.5 mg/kg, glargine 0.5 U/kg, data not shown), the “GIR compared with peak GIR response for glargine” value is given as “exceeded the peak GIR response for glargine”. For the same substance, the “duration of action compared with insulin glargine” value in the data set with healthy volunteers (humans, FIG. 2: LY 0.225 mg/kg, glargine 0.5 U/kg) is recorded as “longer than that of insulin glargine”.
As for glargine, the “peak-trough (PT) ratio” value in data set [1] is recorded as 1.2-2.6.

Values taken from US9050371B2 (Eli Lilly and Company, priority 2008, dated 2015).
